The results in this text go back to PMC12030062, “From In Vitro Cytotoxicity to In Vivo Zebrafish Assays: A Study on 3,3-Dichloro β-, γ- and δ-Lactams and Their Biological Activity Profiles” (Pharmaceuticals, 2025).

Data set [1] in a line: Hemolysis assay with human erythrocytes. The class given is cell-based. The settings on record: human, washed human erythrocyte suspension, pH 7.4; 10 µg/mL; read-out: degree of hemolysis. As to the method:
(§1) In this context, non-hemolytic compounds are essential, as they enhance the safety and efficacy of lactam-based drugs by reducing adverse effects while maintaining their antitumor activity. In accordance with EU regulations (ISO 10993-4), the assessment of the biological compatibility of new compounds that may come into contact with the blood necessitates in vitro hemocompatibility evaluations. In this study, the extent of hemolysis induced by the different compounds was assessed by incubating them with an erythrocyte suspension. The hemolytic response of compounds 1–10 was evaluated at two concentrations (10 and 80 µg/mL), the results of which are presented in Figure 3.
(§2) • In Vitro Assay Using Human Erythrocytes • - Acquisition and Extraction of the Erythrocytes Human blood samples were obtained from the Banc de Sang i Teixits de Barcelona (Spain) from the Catalan Department of Health. Blood was deposited in tubes with the anticoagulant EDTA-K3. Blood samples were centrifuged at 3000 rpm and 4 °C for 10 min (Megafuge 2.0 R. Heraeus Instruments, Hanau, Germany) to induce sedimentation. Plasma was extracted with a Pasteur pipette. Next, the residual pellet was washed with PBS at pH 7.4. This procedure was repeated three times to remove residual leukocytes and platelets and to concentrate the erythrocytes. Following the last wash, the erythrocyte suspension was diluted (1:1) in PBS at pH 7.4 to obtain a suitable erythrocyte suspension (cell density of 8 × 10^9 cell/mL). • - Hemolysis Assay The hemolysis assay determined the capability of different compounds to induce the hemolysis of the erythrocyte membrane. Stock solutions of each compound at 1 mg/mL in PBS at pH 7.4 were prepared. Different volumes (10–80 μL) were placed in polystyrene tubes, and an aliquot of 25 µL of the erythrocyte suspensions was added to each tube. The final volume was 1 mL. The tubes were incubated at room temperature under rotatory conditions. Then, the tubes were centrifuged at 10,000 rpm for 5 min. The supernatants’ absorbance at 540 nm (Shimadzu UV-160A, Shimadzu, Duisburg, Germany) was compared with that of the positive (erythrocytes hemolyzed with distilled water) and negative (erythrocyte suspension in PBS at pH 7.4) controls. The degree of hemolysis was determined using the following equation: Hemolysis (%) = 100 × (Abs − Abs0)/(Abs100 − Abs0) where Abs, Abs0, and Abs100 are the absorbance of the test samples, of the suspension treated with isotonic phosphate–buffered saline (PBS), and of the suspension of complete hemolysis treated with distilled water, respectively. • In Vitro Essay Using Cell Cultures The murine Swiss albino fibroblasts (3T3) and the squamous cell carcinoma (A431) cell lines were obtained from Celltec UB. Cells were grown in DMEM medium (4.5 g/L glucose) supplemented with 10% (v/v) FBS, 2 mM L-glutamine, 100 U/mL penicillin, and 100 µg/mL streptomycin at 37 °C with 5% CO2. Cells were routinely cultured in 75 cm^2 culture flasks and were trypsinized using trypsin–EDTA when the cells reached approximately 80% confluence. The trypan blue assay, which allows for the direct identification and enumeration of the live (unstained) and dead (blue) cells in the cell population, was used to evaluate the viability of the cells in the cell suspension obtained. • - Cell Viability Assays Cell lines of 3T3 (1 × 10^5 cells/mL) and A431 (5 × 10^4 cells/mL) were grown at defined densities in the 60 central wells of a 96-well plate. The cells were incubated for 24 h in 5% CO2 at 37 °C. Then, the spent medium was removed, and the cells were incubated for 24 h, with their corresponding compound solutions (1 mg/mL) previously diluted in a minimum amount of DMF (dimethylformamide) and then in DMEM medium supplemented with 5% FBS (100 µL) at the required concentration range (80 or 250 µg/mL). […]

The next data set relates to human erythrocytes. The data set can be described thus: Hemolysis assay with human erythrocytes. The settings on record: from 10 to 80 µg/mL. The format is cell-based. As to the method:
as §1, §2

As for `CC(C)(C)N1C(=O)C(Cl)(Cl)C1c1ccccc1` (centres unmarked) [Compound 1], the hemolysis at 10 µg/mL in data set [1] is 0.01%. For the same compound, the “change of hemolytic response as concentration increased” value in the data set on human erythrocytes is given as “remained stable”.
